Experimental findings from ChEMBL document CHEMBL1149902, “Steroidal triglycosides, kurilensosides A, B, and C, and other polar steroids from the Far Eastern starfish Hippasteria kurilensis” (2008) are described below.

Common to all, as to format: functional
Test [1] concerns Mesocentrotus nudus. Briefly: Inhibition of Strongylocentrotus nudus egg fertilization by Strongylocentrotus nudus sperm.
Test [2] relates to Mesocentrotus nudus. Briefly: Inhibition of Strongylocentrotus nudus egg fertilization by Strongylocentrotus nudus sperm at 13 uM.
In test [3] the test system is Mesocentrotus nudus. Briefly: Inhibition of Strongylocentrotus nudus egg fertilization by Strongylocentrotus nudus sperm at 55 uM.
Test [4] concerns Mesocentrotus nudus. As to the kind of experiment: Inhibition of Strongylocentrotus nudus egg fertilization by Strongylocentrotus nudus sperm at 67 uM.

One may read the inhibition as how much of the control response was suppressed. Low readings indicate little suppression, high ones strong suppression.

In test [1], `CC(C)[C@@H](O)/C=C/[C@@H](C)[C@H]1C[C@@H](O)C2[C@@]3(O)C(CC[C@@]21C)[C@@]1(C)CC[C@H](O)[C@H](O)C1[C@@H](OS(=O)(=O)[O-])[C@H]3O.[Na+]` (stereo partly specified) displayed an EC100 of 11 ×10⁻⁵ M.

Molecule `CC(C)[C@@H](O)CC[C@@H](C)[C@H]1C[C@H](O)[C@@H]2[C@]1(C)CC[C@H]1[C@@]2(O)C[C@@H](O)C2[C@@H](O)[C@@H](O)CC[C@@]21C` (stereo partly specified) showed an inhibition at 13 µM in test [2] of 100%. `CO[C@H]1[C@H](O[C@H]2CC[C@@]3(C)C([C@H](O)C[C@@]4(O)[C@@H]5[C@@H](O)C[C@H]([C@H](C)CC[C@H](O[C@@H]6O[C@@H](CO)[C@H](OS(=O)(=O)[O-])[C@H]6O[C@@H]6O[C@@H](CO)[C@H](O)[C@H]6O)C(C)C)[C@@]5(C)CC[C@@H]43)[C@H]2O)OC[C@@H](O)[C@@H]1O.[Na+]` (stereo partly specified) [KURILENSOSIDE A] had an EC100 in test [1] of 8.9 ×10⁻⁵ M. Consider `CO[C@H]1[C@H](O[C@H]2CC[C@@]3(C)C([C@H]2O)[C@@H](O)[C@@H](O)[C@@]2(O)[C@@H]4[C@H](O)C[C@H]([C@H](C)CC[C@H](O[C@@H]5O[C@@H](CO[C@H]6OC[C@H](O)[C@@H](O)[C@@H]6O)[C@H](O)[C@H]5O)C(C)C)[C@@]4(C)CC[C@@H]23)OC[C@@H](OC)[C@@H]1O` (stereo partly specified) [KURILENSOSIDE B], for which the inhibition at 55 µM in test [3] was 100%. Consider `CO[C@H]1[C@H](OC[C@@H]2O[C@@H](O[C@@H](CC[C@@H](C)[C@H]3C[C@@H](O)[C@@H]4[C@]3(C)CC[C@H]3[C@@]4(O)[C@H](O)[C@H](O)C4[C@@H](O)[C@@H](O[C@@H]5OC[C@@H](O)[C@H](O)[C@H]5OC)CC[C@@]43C)C(C)C)[C@H](O)[C@H]2O)OC[C@@H](O)[C@@H]1O` (stereo partly specified) [KURILENSOSIDE C], for which the inhibition at 55 µM in test [3] came to 100%. `CO[C@H]1[C@H](OC[C@@H]2O[C@@H](O[C@@H](CC[C@@H](C)[C@H]3C[C@@H](O)[C@@H]4[C@]3(C)CC[C@H]3[C@@]4(O)C[C@H](O)C4[C@@H](O)[C@@H](O)CC[C@@]43C)C(C)C)[C@H](O)[C@H]2O)OC[C@@H](O)[C@@H]1O` (stereo partly specified) [KURILENSOSIDE D] had an inhibition at 67 µM in test [4] of 100%.
